Where a SMILES comes first, the peptide text is derived from it. Bridges are numbered along the chain shown (N, C = ends). [ ]: non-standard residue; d: D form. Nle = CCCC[C@H](N)C(=O)O
Key:
human Kv1.6 = target: T1, human Kv1.6 (Homo sapiens, UniProt P17658); assay: cell-based; conditions: ratio of patch clamp IC50 values
T1 construct: expressed in transfected cells; host or cells: CHO

human Kv1.2 = target: T2, human Kv1.2 (Homo sapiens, UniProt P16389); assay: cell-based; conditions: ratio of patch clamp IC50 values
T2 construct: expressed in transfected cells; host or cells: CHO

human Kv1.1 = target: T3, human Kv1.1 (Homo sapiens, UniProt Q09470); assay: cell-based; conditions: ratio of patch clamp IC50 values
T3 construct: expressed in transfected cells; host or cells: CHO

Rat whole blood = Rat whole blood (Rattus norvegicus, UniProt P15384); assay type: cell-based; conditions: IL-17A release, thapsigargin, 24 Hr, at least 2 replicates
Rat whole blood, sequence (P15384 whole entry): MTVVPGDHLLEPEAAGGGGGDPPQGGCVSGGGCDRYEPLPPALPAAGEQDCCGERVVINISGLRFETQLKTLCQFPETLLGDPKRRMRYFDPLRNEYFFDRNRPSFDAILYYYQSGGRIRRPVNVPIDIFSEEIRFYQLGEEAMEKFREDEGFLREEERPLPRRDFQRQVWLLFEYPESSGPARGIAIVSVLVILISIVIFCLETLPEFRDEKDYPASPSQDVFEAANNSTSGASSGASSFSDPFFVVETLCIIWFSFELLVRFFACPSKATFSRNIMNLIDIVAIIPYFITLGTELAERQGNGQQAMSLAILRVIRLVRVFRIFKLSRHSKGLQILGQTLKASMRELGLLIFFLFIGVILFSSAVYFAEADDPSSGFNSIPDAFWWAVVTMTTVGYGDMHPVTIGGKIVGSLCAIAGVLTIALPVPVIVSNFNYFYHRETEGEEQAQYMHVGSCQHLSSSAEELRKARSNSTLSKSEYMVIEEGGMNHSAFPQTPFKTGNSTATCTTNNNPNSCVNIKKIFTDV

T3 sequence (Q09470 whole entry): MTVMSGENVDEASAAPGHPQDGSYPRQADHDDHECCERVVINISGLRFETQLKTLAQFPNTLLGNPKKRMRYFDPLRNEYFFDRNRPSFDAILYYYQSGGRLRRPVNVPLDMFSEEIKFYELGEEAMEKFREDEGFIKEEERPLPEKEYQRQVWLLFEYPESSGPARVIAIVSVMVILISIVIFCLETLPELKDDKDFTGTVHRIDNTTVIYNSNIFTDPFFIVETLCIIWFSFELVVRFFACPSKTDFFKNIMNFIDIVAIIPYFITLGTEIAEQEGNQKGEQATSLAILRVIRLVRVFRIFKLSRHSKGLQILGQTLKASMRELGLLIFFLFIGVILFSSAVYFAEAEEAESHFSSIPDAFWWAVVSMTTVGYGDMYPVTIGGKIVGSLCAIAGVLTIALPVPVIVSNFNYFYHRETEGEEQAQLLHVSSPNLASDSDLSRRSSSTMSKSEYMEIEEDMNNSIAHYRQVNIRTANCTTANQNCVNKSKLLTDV
T2 sequence (P16389 whole entry): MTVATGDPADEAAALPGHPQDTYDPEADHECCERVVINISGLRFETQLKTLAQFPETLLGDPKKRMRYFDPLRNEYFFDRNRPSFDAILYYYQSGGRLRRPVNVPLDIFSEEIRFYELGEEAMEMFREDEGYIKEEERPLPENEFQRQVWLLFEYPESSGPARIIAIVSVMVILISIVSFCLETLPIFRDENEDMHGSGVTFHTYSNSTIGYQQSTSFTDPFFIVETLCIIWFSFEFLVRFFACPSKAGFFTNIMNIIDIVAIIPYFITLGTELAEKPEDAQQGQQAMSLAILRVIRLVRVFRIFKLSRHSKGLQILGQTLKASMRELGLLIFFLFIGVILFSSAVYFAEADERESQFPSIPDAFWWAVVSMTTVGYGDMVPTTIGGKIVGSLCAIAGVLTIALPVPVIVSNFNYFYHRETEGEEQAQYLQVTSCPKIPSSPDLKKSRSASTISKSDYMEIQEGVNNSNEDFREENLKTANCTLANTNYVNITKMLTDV
T1 sequence (P17658 whole entry): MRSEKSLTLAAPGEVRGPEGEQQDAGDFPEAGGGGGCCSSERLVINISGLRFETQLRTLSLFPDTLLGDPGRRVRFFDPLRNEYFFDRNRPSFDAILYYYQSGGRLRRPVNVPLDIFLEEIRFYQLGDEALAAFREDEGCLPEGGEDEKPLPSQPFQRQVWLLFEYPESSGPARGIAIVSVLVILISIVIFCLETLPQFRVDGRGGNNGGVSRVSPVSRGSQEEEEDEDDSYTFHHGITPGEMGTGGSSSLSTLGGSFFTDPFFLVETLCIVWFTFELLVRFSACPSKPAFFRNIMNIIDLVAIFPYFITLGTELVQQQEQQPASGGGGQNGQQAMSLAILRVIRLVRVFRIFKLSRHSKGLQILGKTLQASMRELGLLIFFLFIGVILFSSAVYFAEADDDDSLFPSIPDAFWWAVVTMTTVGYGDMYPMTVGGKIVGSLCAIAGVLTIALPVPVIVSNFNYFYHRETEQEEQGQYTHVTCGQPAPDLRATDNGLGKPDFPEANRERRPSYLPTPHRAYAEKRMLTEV

Compound | Selectivity ratio Kv1.6/Kv1.3 (human Kv1.6) | Selectivity ratio Kv1.2/Kv1.3 (human Kv1.2) | Selectivity ratio Kv1.1/Kv1.3 (human Kv1.1) | IC50 (Rat whole blood) [nM]
CC[C@H](C)[C@@H]1NC(=O)[C@H](C)NC(=O)[C@H](CCCCN)NC(=O)[C@H](CC(C)C)NC(=O)[C@@H]2CSSC[C@@H](C(=O)N[C@@H](Cc3ccc(O)cc3)C(=O)N3CCC[C@H]3C(=O)N[C@@H](CCCNC(=N)N)C(N)=O)NC(=O)[C@H](CCCCN)NC(=O)[C@@H]3CSSC[C@H](NC(=O)[C@H](CCC(N)=O)NC(=O)[C@H](C(C)C)NC(=O)[C@H](CO)NC(=O)[C@H](C)NC(=O)[C@H](CO)NC(=O)[C@@H](NC(=O)[C@H](CCCNC(=N)N)NC(=O)[C@H](CCSC)NC(=O)[C@H](CC(=O)O)NC(=O)[C@H](CCSC)NC(=O)[C@@H](N)CC(N)=O)CSSC[C@H](NC(=O)[C@H](CCCCN)NC(=O)CNC(=O)[C@H](Cc4ccccc4)NC(=O)[C@H]([C@@H](C)CC)NC(=O)[C@H](CO)NC(=O)CNC1=O)C(=O)N[C@@H](CCSC)C(=O)N[C@@H](CC(N)=O)C(=O)N[C@@H](CCCCN)C(=O)N[C@@H](CCCCN)C(=O)N3)C(=O)N[C@@H](CCCCN)C(=O)N[C@@H](CCC(N)=O)C(=O)N[C@@H](CCCCN)C(=O)N2 [compound 32] (H-NMDMRCSASVQCKQKCLKAIGSIFGKCMNKKCKCYPR-NH2; disulfide 6-27, 12-32, 16-34) | 1272 | 83 | >15200 | 0.53
CCCC[C@@H]1NC(=O)[C@@H]2CSSC[C@H](NC(=O)[C@H](CCCNC(=N)N)NC(=O)[C@H](CCCC)NC(=O)[C@H](CC(=O)O)NC(=O)[C@H](CCCC)NC(=O)[C@@H](N)CC(N)=O)C(=O)N[C@@H](CCCNC(=N)N)C(=O)N[C@@H](C)C(=O)N[C@@H](CO)C(=O)N[C@@H](C(C)C)C(=O)N[C@@H](CCC(=O)O)C(=O)N[C@H]3CSSC[C@H](NC(=O)[C@H](CCCCN)NC(=O)[C@H](CCCCN)NC(=O)[C@H](CC(N)=O)NC1=O)C(=O)N[C@@H](CCCCN)C(=O)N[C@H](C(=O)N[C@@H](Cc1ccc(O)cc1)C(=O)N1CCC[C@H]1C(=O)N[C@@H](CCCNC(=N)N)C(N)=O)CSSC[C@H](NC(=O)[C@H](CCCCN)NC(=O)[C@H](CCC(N)=O)NC(=O)[C@H](CCCCN)NC3=O)C(=O)N[C@@H](CC(C)C)C(=O)N[C@@H](CCCCN)C(=O)N[C@@H](C)C(=O)N[C@@H]([C@@H](C)CC)C(=O)NCC(=O)N[C@@H](CO)C(=O)N[C@@H]([C@@H](C)CC)C(=O)N[C@@H](Cc1ccccc1)C(=O)NCC(=O)N[C@@H](CCCCN)C(=O)N2 [compound 46] (H-N[Nle]D[Nle]RCRASVECKQKCLKAIGSIFGKC[Nle]NKKCKCYPR-NH2; disulfide 6-27, 12-32, 16-34) | 1954 | 674 | >18600 | 0.91
CC[C@H](C)[C@@H]1NC(=O)[C@H](C)NC(=O)[C@H](CCCCN)NC(=O)[C@H](CC(C)C)NC(=O)[C@@H]2CSSC[C@@H](C(=O)N[C@@H](Cc3ccc(O)cc3)C(=O)N3CCC[C@H]3C(=O)N[C@@H](CCCNC(=N)N)C(N)=O)NC(=O)[C@H](CCCCN)NC(=O)[C@@H]3CSSC[C@H](NC(=O)[C@H](CCC(=O)O)NC(=O)[C@H](C(C)C)NC(=O)[C@H](CO)NC(=O)[C@H]([C@@H](C)CC)NC(=O)[C@H](CO)NC(=O)[C@@H](NC(=O)[C@H](CCCNC(=N)N)NC(=O)[C@H](CCSC)NC(=O)[C@H](CC(=O)O)NC(=O)[C@H](CCSC)NC(=O)[C@@H](N)CC(N)=O)CSSC[C@H](NC(=O)[C@H](CCCCN)NC(=O)CNC(=O)[C@H](Cc4ccccc4)NC(=O)[C@H]([C@@H](C)CC)NC(=O)[C@H](CO)NC(=O)CNC1=O)C(=O)N[C@@H](CCSC)C(=O)N[C@@H](CC(N)=O)C(=O)N[C@@H](CCCCN)C(=O)N[C@@H](CCCCN)C(=O)N3)C(=O)N[C@@H](CCCCN)C(=O)N[C@@H](CCC(N)=O)C(=O)N[C@@H](CCCCN)C(=O)N2 [compound 30] (H-NMDMRCSISVECKQKCLKAIGSIFGKCMNKKCKCYPR-NH2; disulfide 6-27, 12-32, 16-34) | >11800 | 169 | >11800 | 0.61

Reference: patent US20240182531A1, “KV1.3 Blockers” (priority 2021, published 2024)
